Reference: ChEMBL document CHEMBL1201862, “PubChem BioAssay data set” (2004)
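In this assay, cells in 96-well plates receive the compound at five concentrations for 48 hours. Endpoints are linearly interpolated between the surrounding concentrations. GI50 = concentration required for 50% inhibition of growth.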 Activity calls are given as the source filed them. Rule as the data show it: active = GI50 up to about 1.1 µM and inactive = higher.

How the values were obtained:
Experiment in all cases: NCI tumour cell line growth inhibition, 48 h
ACHN = system: ACHN
BT-549 = system: BT-549
DU-145 = system: DU-145
HCT-116 = system: HCT-116
HL-60 = system: HL-60
HOP-62 = system: HOP-62
HT-29 = system: HT-29
IGROV-1 = system: IGROV-1
KM12 = system: KM12
LOX IMVI = system: LOX IMVI
MCF7 = system: MCF7
NCI-H23 = system: NCI-H23
OVCAR-4 = system: OVCAR-4
RPMI-8226 = system: RPMI-8226
SF-295 = system: SF-295
SK-MEL-2 = system: SK-MEL-2
SNB-19 = system: SNB-19
T47D = system: T47D
UACC-62 = system: UACC-62
UO-31 = system: UO-31

For `COC1=C(OC)C(=O)C(Sc2ccc3ccccc3c2)=CC1=O`, the GI50 (ACHN) was 8.28 µM (inactive), the GI50 (BT-549) was 9.2 µM (inactive) and the GI50 (DU-145) was 14.5 µM (inactive). For the same compound, the GI50 (HCT-116) was 4.58 µM (inactive), the GI50 (HL-60) was 0.716 µM (active) and the GI50 (HOP-62) was 13.2 µM (inactive). For the same compound, the GI50 (HT-29) was 14.7 µM (inactive), the GI50 (IGROV-1) was 12.4 µM (inactive) and the GI50 (KM12) was 5.86 µM (inactive). The GI50 (LOX IMVI) was 3.54 µM (inactive), the GI50 (MCF7) was 4.25 µM (inactive) and the GI50 (NCI-H23) was 11.2 µM (inactive). The GI50 (OVCAR-4) was 3.67 µM (inactive), the GI50 (RPMI-8226) was 0.678 µM (active) and the GI50 (SF-295) was 9.42 µM (inactive). The GI50 (SK-MEL-2) was 13.6 µM (inactive), the GI50 (SNB-19) was 14.1 µM (inactive) and the GI50 (T47D) was 5.58 µM (inactive). For the same compound, the GI50 (UACC-62) was 7.64 µM (inactive) and the GI50 (UO-31) was 6.11 µM (inactive).

`CN(C)CCNC(=O)c1cccc2nc3c(ccc4ccccc43)nc12` was tested, and the GI50 (ACHN) was 1.41 µM (inactive), the GI50 (BT-549) was 10.6 µM (inactive) and the GI50 (DU-145) was 4.85 µM (inactive). The GI50 (HCT-116) was 1.75 µM (inactive), the GI50 (HL-60) was 1.17 µM (inactive) and the GI50 (HOP-62) was 2.25 µM (inactive). For the same compound, the GI50 (HT-29) was 1.56 µM (inactive), the GI50 (IGROV-1) was 2.9 µM (inactive) and the GI50 (KM12) was 2.09 µM (inactive). For the same compound, the GI50 (LOX IMVI) was 1.08 µM (active), the GI50 (MCF7) was 0.476 µM (active) and the GI50 (NCI-H23) was 3.9 µM (inactive). For the same compound, the GI50 (OVCAR-4) was 2.21 µM (inactive), the GI50 (RPMI-8226) was 1.91 µM (inactive) and the GI50 (SF-295) was 2.56 µM (inactive). The GI50 (SK-MEL-2) was 1.91 µM (inactive), the GI50 (SNB-19) was 5.06 µM (inactive) and the GI50 (T47D) was 6.11 µM (inactive). The GI50 (UACC-62) was 2.45 µM (inactive) and the GI50 (UO-31) was 3.38 µM (inactive).

In the case of `Cc1c(-c2ccccc2)c(-c2ccc(OCCN(C)C)cc2)n2ccccc12`, the GI50 (ACHN) is reported as 13.9 µM (inactive), the GI50 (BT-549) is reported as 5.65 µM (inactive) and the GI50 (DU-145) is reported as 13.3 µM (inactive). For the same compound, the GI50 (HCT-116) was 5.61 µM (inactive), the GI50 (HL-60) was 3.67 µM (inactive) and the GI50 (HOP-62) was 13.1 µM (inactive). The GI50 (HT-29) was 1.82 µM (inactive), the GI50 (IGROV-1) was 10.1 µM (inactive) and the GI50 (KM12) was 3.82 µM (inactive). For the same compound, the GI50 (LOX IMVI) was 2.23 µM (inactive), the GI50 (MCF7) was 7.62 µM (inactive) and the GI50 (NCI-H23) was 16.6 µM (inactive). The GI50 (OVCAR-4) was 12.4 µM (inactive), the GI50 (RPMI-8226) was 2.69 µM (inactive) and the GI50 (SF-295) was 12.2 µM (inactive). The GI50 (SK-MEL-2) was 7.74 µM (inactive), the GI50 (SNB-19) was 12 µM (inactive) and the GI50 (T47D) was 10.4 µM (inactive). The GI50 (UACC-62) was 1.84 µM (inactive) and the GI50 (UO-31) was 9.48 µM (inactive).

With `CCOC(=O)c1cnccc1CC1(C#N)c2ccccc2C=CN1C(=O)c1ccccc1` (stereo not given) the GI50 (ACHN) was 39.4 µM (inactive), the GI50 (BT-549) was 51.6 µM (inactive) and the GI50 (DU-145) was 35.6 µM (inactive). The GI50 (HCT-116) was 29.2 µM (inactive), the GI50 (HL-60) was 18.5 µM (inactive) and the GI50 (HOP-62) was 53.2 µM (inactive). For the same compound, the GI50 (HT-29) was 12.3 µM (inactive), the GI50 (IGROV-1) was 17.3 µM (inactive) and the GI50 (KM12) was 13.3 µM (inactive). For the same compound, the GI50 (LOX IMVI) was 24.1 µM (inactive), the GI50 (MCF7) was 39.2 µM (inactive) and the GI50 (NCI-H23) was 32.5 µM (inactive). For the same compound, the GI50 (OVCAR-4) was 21.7 µM (inactive), the GI50 (RPMI-8226) was 4.91 µM (inactive) and the GI50 (SF-295) was 53.6 µM (inactive). For the same compound, the GI50 (SK-MEL-2) was 21.6 µM (inactive), the GI50 (SNB-19) was 70 µM (inactive) and the GI50 (T47D) was 24.4 µM (inactive). The GI50 (UACC-62) was 23.9 µM (inactive) and the GI50 (UO-31) was 27.2 µM (inactive).

`CN(CCCCN(C)CCc1ccc(Cl)c(Cl)c1)CCCCN1CCCC1` was tested, and the GI50 (ACHN) was 1.91 µM (inactive), the GI50 (BT-549) was 1.87 µM (inactive) and the GI50 (DU-145) was 2.73 µM (inactive). The GI50 (HCT-116) was 1.51 µM (inactive), the GI50 (HL-60) was 1.49 µM (inactive) and the GI50 (HOP-62) was 1.83 µM (inactive). For the same compound, the GI50 (HT-29) was 0.494 µM (active), the GI50 (IGROV-1) was 2.2 µM (inactive) and the GI50 (KM12) was 0.705 µM (active). The GI50 (LOX IMVI) was 0.912 µM (active), the GI50 (MCF7) was 1.46 µM (inactive) and the GI50 (NCI-H23) was 1.71 µM (inactive). The GI50 (OVCAR-4) was 1.83 µM (inactive), the GI50 (RPMI-8226) was 0.649 µM (active) and the GI50 (SF-295) was 1.83 µM (inactive). The GI50 (SK-MEL-2) was 1.63 µM (inactive), the GI50 (SNB-19) was 2.26 µM (inactive) and the GI50 (T47D) was 2 µM (inactive). The GI50 (UACC-62) was 1.93 µM (inactive) and the GI50 (UO-31) was 0.509 µM (active).

In the case of `CC(=O)NC1C(OCc2ccccc2)OC(CO)C(O)C1OCC(=O)N1CCCC1C(=O)N[C@@H](CCC(=O)NCCNCCNc1c2ccccc2nc2cccc([N+](=O)[O-])c12)C(N)=O` (stereo not given in full), the GI50 (ACHN) is reported as 2.11 µM (inactive), the GI50 (BT-549) is reported as 4.82 µM (inactive) and the GI50 (DU-145) is reported as 0.968 µM (active). For the same compound, the GI50 (HCT-116) was 0.979 µM (active), the GI50 (HL-60) was 3.78 µM (inactive) and the GI50 (HOP-62) was 2.54 µM (inactive). The GI50 (HT-29) was 1.46 µM (inactive), the GI50 (IGROV-1) was 2.56 µM (inactive) and the GI50 (KM12) was 3.46 µM (inactive). The GI50 (LOX IMVI) was 4.55 µM (inactive), the GI50 (MCF7) was 0.724 µM (active) and the GI50 (NCI-H23) was 2.51 µM (inactive). The GI50 (OVCAR-4) was 3.91 µM (inactive), the GI50 (RPMI-8226) was 0.37 µM (active) and the GI50 (SF-295) was 5.33 µM (inactive). For the same compound, the GI50 (SK-MEL-2) was 3.67 µM (inactive), the GI50 (SNB-19) was 5.5 µM (inactive) and the GI50 (T47D) was 5.78 µM (inactive). For the same compound, the GI50 (UACC-62) was 5.24 µM (inactive) and the GI50 (UO-31) was 3.75 µM (inactive).
